{
  "source": "PubChem BioAssay (NCI)",
  "assay_in_all_cases": "NCI-60 cell line screen, 48 h",
  "key": {"OVCAR-4 ovarian": {"test_system": "OVCAR-4 ovarian"}, "BT-549 breast": {"test_system": "BT-549 breast"}, "DU-145 prostate": {"test_system": "DU-145 prostate"}, "U251 CNS": {"test_system": "U251 CNS"}, "HCT-15 colon": {"test_system": "HCT-15 colon"}, "HL-60(TB) leukemia": {"test_system": "HL-60(TB) leukemia"}, "KM12 colon": {"test_system": "KM12 colon"}, "A498 renal": {"test_system": "A498 renal"}, "HCC-2998 colon": {"test_system": "HCC-2998 colon"}, "CAKI-1 renal": {"test_system": "CAKI-1 renal"}, "NCI-H522 lung": {"test_system": "NCI-H522 lung"}, "PC-3 prostate": {"test_system": "PC-3 prostate"}, "RPMI-8226 leukemia": {"test_system": "RPMI-8226 leukemia"}, "UACC-257 melanoma": {"test_system": "UACC-257 melanoma"}, "MDA-MB-435": {"test_system": "MDA-MB-435"}, "EKVX NSCLC": {"test_system": "EKVX NSCLC"}, "CCRF-CEM leukemia": {"test_system": "CCRF-CEM leukemia"}, "HCT-116 colon": {"test_system": "HCT-116 colon"}, "SN12C renal": {"test_system": "SN12C renal"}, "IGROV1 ovarian": {"test_system": "IGROV1 ovarian"}, "NCI-H23 lung": {"test_system": "NCI-H23 lung"}, "SW-620 colon": {"test_system": "SW-620 colon"}, "RXF 393 renal": {"test_system": "RXF 393 renal"}, "NCI-H460 lung": {"test_system": "NCI-H460 lung"}, "MDA-MB-231 breast": {"test_system": "MDA-MB-231 breast"}, "SK-MEL-28 melanoma": {"test_system": "SK-MEL-28 melanoma"}, "SK-MEL-5 melanoma": {"test_system": "SK-MEL-5 melanoma"}, "COLO 205 colon": {"test_system": "COLO 205 colon"}},
  "note": "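All cell lines were grown in 96-well plates and treated with compound for 48 hours. Here, GI50 denotes the concentration required for 50% inhibition of growth. TGI is the concentration that stops growth completely.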",
  "data": [
    {"smiles": "CCOC(=O)c1ccc(NC2=C(Cl)C(=O)c3nc(C)ccc3C2=O)cc1", "values": [
      {"measurement": "GI50", "setting": "OVCAR-4 ovarian", "value": 1.67, "unit": "µM"},
      {"measurement": "TGI", "setting": "OVCAR-4 ovarian", "value": 3.26, "unit": "µM"},
      {"measurement": "GI50", "setting": "BT-549 breast", "value": 2.06, "unit": "µM"},
      {"measurement": "TGI", "setting": "BT-549 breast", "value": 5.1, "unit": "µM"},
      {"measurement": "GI50", "setting": "DU-145 prostate", "value": 1.82, "unit": "µM"},
      {"measurement": "TGI", "setting": "DU-145 prostate", "value": 3.4, "unit": "µM"},
      {"measurement": "GI50", "setting": "U251 CNS", "value": 3.75, "unit": "µM"},
      {"measurement": "TGI", "setting": "U251 CNS", "value": 16.1, "unit": "µM"},
      {"measurement": "GI50", "setting": "HCT-15 colon", "value": 1.57, "unit": "µM"},
      {"measurement": "TGI", "setting": "HCT-15 colon", "value": 3.37, "unit": "µM"},
      {"measurement": "GI50", "setting": "HL-60(TB) leukemia", "value": 1.1, "unit": "µM"},
      {"measurement": "TGI", "setting": "HL-60(TB) leukemia", "value": 3.21, "unit": "µM"},
      {"measurement": "GI50", "setting": "KM12 colon", "value": 3.37, "unit": "µM"},
      {"measurement": "TGI", "setting": "KM12 colon", "value": 12.9, "unit": "µM"},
      {"measurement": "GI50", "setting": "A498 renal", "value": 11.7, "unit": "µM"},
      {"measurement": "TGI", "setting": "A498 renal", "value": 28.3, "unit": "µM"},
      {"measurement": "GI50", "setting": "HCC-2998 colon", "value": 3.63, "unit": "µM"},
      {"measurement": "TGI", "setting": "HCC-2998 colon", "value": 13.8, "unit": "µM"},
      {"measurement": "GI50", "setting": "CAKI-1 renal", "value": 1.53, "unit": "µM"},
      {"measurement": "TGI", "setting": "CAKI-1 renal", "value": 2.99, "unit": "µM"},
      {"measurement": "GI50", "setting": "NCI-H522 lung", "value": 1.71, "unit": "µM"},
      {"measurement": "TGI", "setting": "NCI-H522 lung", "value": 3.72, "unit": "µM"},
      {"measurement": "GI50", "setting": "PC-3 prostate", "value": 3.31, "unit": "µM"},
      {"measurement": "TGI", "setting": "PC-3 prostate", "value": 15.7, "unit": "µM"},
      {"measurement": "GI50", "setting": "RPMI-8226 leukemia", "value": 2.16, "unit": "µM"},
      {"measurement": "TGI", "setting": "RPMI-8226 leukemia", "value": 5.95, "unit": "µM"},
      {"measurement": "GI50", "setting": "UACC-257 melanoma", "value": 1.63, "unit": "µM"},
      {"measurement": "TGI", "setting": "UACC-257 melanoma", "value": 3.12, "unit": "µM"},
      {"measurement": "GI50", "setting": "MDA-MB-435", "value": 3.21, "unit": "µM"},
      {"measurement": "TGI", "setting": "MDA-MB-435", "value": 10.8, "unit": "µM"},
      {"measurement": "GI50", "setting": "EKVX NSCLC", "value": 2.53, "unit": "µM"},
      {"measurement": "TGI", "setting": "EKVX NSCLC", "value": 7.55, "unit": "µM"},
      {"measurement": "GI50", "setting": "CCRF-CEM leukemia", "value": 1.27, "unit": "µM"},
      {"measurement": "TGI", "setting": "CCRF-CEM leukemia", "value": 4.88, "unit": "µM"},
      {"measurement": "GI50", "setting": "HCT-116 colon", "value": 1.87, "unit": "µM"},
      {"measurement": "TGI", "setting": "HCT-116 colon", "value": 4.36, "unit": "µM"},
      {"measurement": "GI50", "setting": "SN12C renal", "value": 3.51, "unit": "µM"},
      {"measurement": "TGI", "setting": "SN12C renal", "value": 20.2, "unit": "µM"},
      {"measurement": "GI50", "setting": "IGROV1 ovarian", "value": 3.43, "unit": "µM"},
      {"measurement": "TGI", "setting": "IGROV1 ovarian", "value": 11.3, "unit": "µM"},
      {"measurement": "GI50", "setting": "NCI-H23 lung", "value": 2.31, "unit": "µM"},
      {"measurement": "TGI", "setting": "NCI-H23 lung", "value": 7.58, "unit": "µM"},
      {"measurement": "GI50", "setting": "SW-620 colon", "value": 2.06, "unit": "µM"},
      {"measurement": "TGI", "setting": "SW-620 colon", "value": 4.41, "unit": "µM"},
      {"measurement": "GI50", "setting": "RXF 393 renal", "value": 1.63, "unit": "µM"},
      {"measurement": "TGI", "setting": "RXF 393 renal", "value": 3.02, "unit": "µM"},
      {"measurement": "GI50", "setting": "NCI-H460 lung", "value": 8.76, "unit": "µM"},
      {"measurement": "TGI", "setting": "NCI-H460 lung", "value": 30.1, "unit": "µM"},
      {"measurement": "GI50", "setting": "MDA-MB-231 breast", "value": 3.73, "unit": "µM"},
      {"measurement": "TGI", "setting": "MDA-MB-231 breast", "value": 17.1, "unit": "µM"},
      {"measurement": "GI50", "setting": "SK-MEL-28 melanoma", "value": 2.47, "unit": "µM"},
      {"measurement": "TGI", "setting": "SK-MEL-28 melanoma", "value": 6.02, "unit": "µM"},
      {"measurement": "GI50", "setting": "SK-MEL-5 melanoma", "value": 2.21, "unit": "µM"},
      {"measurement": "TGI", "setting": "SK-MEL-5 melanoma", "value": 5.63, "unit": "µM"},
      {"measurement": "GI50", "setting": "COLO 205 colon", "value": 1.75, "unit": "µM"},
      {"measurement": "TGI", "setting": "COLO 205 colon", "value": 3.58, "unit": "µM"}
    ]}
  ]
}
